Test results: the NIST ThermoML archive (doi:10.1021/acs.jced.8b00011)
“And” between values parts separate entries of the source, which are not always exact repeats. Equal entries are not always repeated.

Details: Liquid; for electrical conductivity: electrochemical impedance spectroscopy; for mass density: Vibrating tube method

CCCCC[P+](CC)(CC)CC.O=S(=O)([N-]S(=O)(=O)C(F)(F)F)C(F)(F)F
Details | electrical conductivity [S/m] | viscosity
298.15 K, 60200 kPa, Falling or rolling sphere viscometry | – | 188.2 mPa·s
298.15 K, 76900 kPa, Frequency=0 MHz | 0.0691 | –
298.15 K, 80100 kPa, Falling or rolling sphere viscometry | – | 237.6 mPa·s
298.15 K, 99300 kPa, Frequency=0 MHz | 0.0551 | –
298.15 K, 100600 kPa, Falling or rolling sphere viscometry | – | 299.8 mPa·s
298.15 K, 120600 kPa, Falling or rolling sphere viscometry | – | 374.6 mPa·s
298.15 K, 120900 kPa, Falling or rolling sphere viscometry | – | 375.1 mPa·s
298.15 K, 126100 kPa, Frequency=0 MHz | 0.0413 | –
298.15 K, 140500 kPa, Falling or rolling sphere viscometry | – | 464.2 mPa·s
298.15 K, 149100 kPa, Frequency=0 MHz | 0.0333 | –
298.15 K, 160800 kPa, Falling or rolling sphere viscometry | – | 575.1 mPa·s
298.15 K, 180200 kPa, Falling or rolling sphere viscometry | – | 703.8 mPa·s
298.15 K, 199500 kPa, Falling or rolling sphere viscometry | – | 855.3 mPa·s
298.15 K, 225400 kPa, Frequency=0 MHz | 0.0159 | –
298.15 K, 249800 kPa, Frequency=0 MHz | 0.0127 | –
298.16 K, 600 kPa, Frequency=0 MHz | 0.164 | –
298.16 K, 1600 kPa, Frequency=0 MHz | 0.162 | –
298.16 K, 201000 kPa, Frequency=0 MHz | 0.0201 | –
303.15 K, 100 kPa, Concentric cylinders viscometry | – | 67.86 mPa·s
303.15 K, 100 kPa, Falling or rolling sphere viscometry | – | 68.41 mPa·s
303.15 K, 700 kPa, Falling or rolling sphere viscometry | – | 68.43 mPa·s
303.15 K, 10600 kPa, Falling or rolling sphere viscometry | – | 78.1 mPa·s
303.15 K, 20600 kPa, Falling or rolling sphere viscometry | – | 88.77 mPa·s
303.15 K, 30400 kPa, Falling or rolling sphere viscometry | – | 100.3 mPa·s
303.15 K, 40600 kPa, Falling or rolling sphere viscometry | – | 113.6 mPa·s
303.15 K, 50700 kPa, Falling or rolling sphere viscometry | – | 128 mPa·s
303.15 K, 60800 kPa, Falling or rolling sphere viscometry | – | 144.1 mPa·s
303.15 K, 80300 kPa, Falling or rolling sphere viscometry | – | 179.8 mPa·s
303.15 K, 100100 kPa, Falling or rolling sphere viscometry | – | 223.2 mPa·s
313.15 K, 100 kPa, Concentric cylinders viscometry | – | 43.97 mPa·s
313.15 K, 100 kPa, Falling or rolling sphere viscometry | – | 44.35 mPa·s [middle of 5 runs]
313.15 K, 700 kPa, Falling or rolling sphere viscometry | – | 44.4 mPa·s
313.15 K, 10600 kPa, Falling or rolling sphere viscometry | – | 50.22 mPa·s
313.15 K, 20600 kPa, Falling or rolling sphere viscometry | – | 56.64 mPa·s
313.15 K, 30500 kPa, Falling or rolling sphere viscometry | – | 63.64 mPa·s
313.15 K, 40500 kPa, Falling or rolling sphere viscometry | – | 71.42 mPa·s
313.15 K, 50600 kPa, Falling or rolling sphere viscometry | – | 79.95 mPa·s
313.15 K, 60600 kPa, Falling or rolling sphere viscometry | – | 89.14 mPa·s
313.15 K, 80300 kPa, Falling or rolling sphere viscometry | – | 109.9 mPa·s
313.15 K, 99900 kPa, Falling or rolling sphere viscometry | – | 134.5 mPa·s
323.14 K, 800 kPa, Frequency=0 MHz | 0.434 | –
323.14 K, 3200 kPa, Frequency=0 MHz | 0.423 | –
323.14 K, 101600 kPa, Frequency=0 MHz | 0.17 | –
323.14 K, 150900 kPa, Frequency=0 MHz | 0.113 | –
323.14 K, 175500 kPa, Frequency=0 MHz | 0.0922 | –
323.15 K, 100 kPa, Concentric cylinders viscometry | – | 30.06 mPa·s
323.15 K, 100 kPa, Falling or rolling sphere viscometry | – | 29.89 mPa·s [middle of 5 runs]
323.15 K, 100 kPa, Frequency=0 MHz | 0.437 | –
323.15 K, 700 kPa, Falling or rolling sphere viscometry | – | 30.1 mPa·s
323.15 K, 2200 kPa, Frequency=0 MHz | 0.427 | –

Details | electrical conductivity | mass density
303.15 K, 100 kPa | – | 1298.32 kg/m3 [middle of 6 runs]
303.15 K, 101.33 kPa | 0.208 S/m and 0.207 S/m | –
303.15 K, 1000 kPa | – | 1298.99 kg/m3
303.15 K, 5000 kPa | – | 1301.97 kg/m3
303.15 K, 10000 kPa | – | 1305.55 kg/m3
303.15 K, 15000 kPa | – | 1309.08 kg/m3
303.15 K, 20000 kPa | – | 1312.5 kg/m3
303.15 K, 25000 kPa | – | 1315.86 kg/m3
303.15 K, 30000 kPa | – | 1319.11 kg/m3
303.15 K, 35000 kPa | – | 1322.31 kg/m3
303.15 K, 40000 kPa | – | 1325.42 kg/m3
303.15 K, 45000 kPa | – | 1328.53 kg/m3
303.15 K, 50000 kPa | – | 1331.53 kg/m3
308.15 K, 101.33 kPa | 0.256 S/m and 0.255 S/m | –
313.15 K, 100 kPa | – | 1290.13 kg/m3 [middle of 6 runs]
313.15 K, 101.33 kPa | 0.31 S/m | –
313.15 K, 1000 kPa | – | 1291.1 kg/m3
313.15 K, 5000 kPa | – | 1294.18 kg/m3
313.15 K, 10000 kPa | – | 1297.91 kg/m3
313.15 K, 15000 kPa | – | 1301.54 kg/m3
313.15 K, 20000 kPa | – | 1305.07 kg/m3
313.15 K, 25000 kPa | – | 1308.48 kg/m3
313.15 K, 30000 kPa | – | 1311.85 kg/m3
313.15 K, 35000 kPa | – | 1315.16 kg/m3
313.15 K, 40000 kPa | – | 1318.37 kg/m3
313.15 K, 45000 kPa | – | 1321.53 kg/m3
313.15 K, 50000 kPa | – | 1324.64 kg/m3
318.15 K, 101.33 kPa | 0.371 S/m and 0.372 S/m | –
323.15 K, 100 kPa | – | 1281.76 kg/m3 [middle of 6 runs]
323.15 K, 101.33 kPa | 0.437 S/m and 0.44 S/m and 0.441 S/m | –
323.15 K, 1000 kPa | – | 1282.87 kg/m3
